Laboratory results published in PubChem BioAssay AID1259407 (Chemical Carcinogenesis Research Information System (CCRIS), 2018).
The source made the active and inactive calls. No rule for the calls is given here.

Test system: CCRIS mutagenicity, Ames/micronucleus/aberration tests
Test: CCRIS mutagenicity studies

Question: Which results are given for `CC1(C)CC(O)CC(C)(C)N1[O]`?
Answer: mutagenic call (Test System: AMES SALMONELLA TYPHIMURIUM, Strain/Indicator: TA100, Metabolic Activation: NONE, Method: STANDARD PLATE): active; positive; mutagenic call (Test System: AMES SALMONELLA TYPHIMURIUM, Strain/Indicator: TA102, Metabolic Activation: NONE, Method: STANDARD PLATE): inactive; negative; mutagenic call (Test System: AMES SALMONELLA TYPHIMURIUM, Strain/Indicator: TA102, Metabolic Activation: XANTHINE OXIDASE, Method: STANDARD PLATE): inactive; negative; mutagenic call (Test System: AMES SALMONELLA TYPHIMURIUM, Strain/Indicator: TA104, Metabolic Activation: NONE, Method: STANDARD PLATE): inactive; negative; mutagenic call (Test System: AMES SALMONELLA TYPHIMURIUM, Strain/Indicator: TA104, Metabolic Activation: XANTHINE OXIDASE, Method: STANDARD PLATE): inactive; negative; mutagenic call (Test System: Mouse lymphoma, Strain/Indicator: L5178Y (tk+/tk-), Metabolic Activation: None, Method: Suspension/plate): active; positive; mutagenic call (Test System: Mouse lymphoma, Strain/Indicator: L5178Y (tk+/tk-), Metabolic Activation: Rat, Liver, S-9, Aroclor 1254, Method: Suspension/plate): active; positive

Question: How did the mutagenic call (End Point: IN VITRO MICRONUCLEUS, Test System: HUMAN LYMPHOBLASTOID WTK1 CELLS, Metabolic Activation: NONE) turn out when `c1ccc2[nH]c(-c3cscn3)nc2c1` was run?
Answer: The mutagenic call was “active; positive; uva radiation was 250 uw/cm2”.

Question: What about the mutagenic call (End Point: IN VITRO MICRONUCLEUS, Test System: V79 CELLS, Metabolic Activation: NONE) of the same compound?
Answer: The mutagenic call was “active; positive”.

Question: And the mutagenic call (Test System: AMES SALMONELLA TYPHIMURIUM, Strain/Indicator: TA97, Metabolic Activation: NONE, BACTERIA IRRADIATED IN PRESENCE OF TEST COMPOUND WITH UVA FOR 10 MIN, TRANSFERRED TO MEDIUM, Metabolic Activation: NONE, BACTERIA IRRADIATED IN PRESENCE OF TEST COMPOUND WITH UVA FOR 10 MIN, TRANSFERRED TO MEDIUM, Method: STANDARD PLATE)?
Answer: Its mutagenic call is “active; positive; uva was 250 uw/cm2”.

Question: What about the mutagenic call (Test System: AMES SALMONELLA TYPHIMURIUM, Strain/Indicator: TA98, Metabolic Activation: HAMSTER, LIVER, S-9, AROCLOR 1254 (5 OR 30%), Method: PREINCUBATION) of the same compound?
Answer: The mutagenic call was “inactive; negative”.

Question: What about the mutagenic call (Test System: AMES SALMONELLA TYPHIMURIUM, Strain/Indicator: TA98, Metabolic Activation: HAMSTER, LIVER, S-9, AROCLOR 1254 (10%), Method: PREINCUBATION) of the same compound?
Answer: Its mutagenic call is “active; positive”.

Question: What about the mutagenic call (Test System: AMES SALMONELLA TYPHIMURIUM, Strain/Indicator: TA98, Metabolic Activation: NONE, BACTERIA IRRADIATED IN PRESENCE OF TEST COMPOUND WITH UVA FOR 10 MIN, TRANSFERRED TO MEDIUM, Metabolic Activation: NONE, BACTERIA IRRADIATED IN PRESENCE OF TEST COMPOUND WITH UVA FOR 10 MIN, TRANSFERRED TO MEDIUM, Method: STANDARD PLATE) of the same compound?
Answer: Its mutagenic call is “active; positive; response was just barely positive; uva was 250 uw/cm2”.

Question: What about the mutagenic call (Test System: AMES SALMONELLA TYPHIMURIUM, Strain/Indicator: TA98, Metabolic Activation: NONE, Method: PREINCUBATION) of the same compound?
Answer: The mutagenic call was “inactive; negative”.

Question: And the mutagenic call (Test System: AMES SALMONELLA TYPHIMURIUM, Strain/Indicator: TA98, Metabolic Activation: RAT, LIVER, S-9, AROCLOR 1254 (30%), Method: PREINCUBATION)?
Answer: The mutagenic call was “inactive; negative”.

Question: What about the mutagenic call (Test System: AMES SALMONELLA TYPHIMURIUM, Strain/Indicator: TA100, Metabolic Activation: HAMSTER, LIVER, S-9, AROCLOR 1254 (30%), Method: PREINCUBATION) of the same compound?
Answer: The mutagenic call was “inactive; negative”.

Question: And the mutagenic call (Test System: AMES SALMONELLA TYPHIMURIUM, Strain/Indicator: TA100, Metabolic Activation: NONE, BACTERIA IRRADIATED IN PRESENCE OF TEST COMPOUND WITH UVA FOR 10 MIN, TRANSFERRED TO MEDIUM, Metabolic Activation: NONE, BACTERIA IRRADIATED IN PRESENCE OF TEST COMPOUND WITH UVA FOR 10 MIN, TRANSFERRED TO MEDIUM, Method: STANDARD PLATE)?
Answer: Its mutagenic call is “active; positive; uva was 250 uw/cm2”.

Question: And the mutagenic call (Test System: AMES SALMONELLA TYPHIMURIUM, Strain/Indicator: TA100, Metabolic Activation: NONE, Method: PREINCUBATION)?
Answer: Its mutagenic call is “inactive; negative”.

Question: And the mutagenic call (Test System: AMES SALMONELLA TYPHIMURIUM, Strain/Indicator: TA100, Metabolic Activation: RAT, LIVER, S-9, AROCLOR 1254 (30%), Method: PREINCUBATION)?
Answer: The mutagenic call was “inactive; negative”.

Question: And the mutagenic call (Test System: AMES SALMONELLA TYPHIMURIUM, Strain/Indicator: TA104, Metabolic Activation: NONE, BACTERIA IRRADIATED IN PRESENCE OF TEST COMPOUND WITH UVA FOR 10 MIN, TRANSFERRED TO MEDIUM, Metabolic Activation: NONE, BACTERIA IRRADIATED IN PRESENCE OF TEST COMPOUND WITH UVA FOR 10 MIN, TRANSFERRED TO MEDIUM, Method: STANDARD PLATE)?
Answer: Its mutagenic call is “active; positive; uva was 250 uw/cm2”.

Question: What about the mutagenic call (Test System: E. COLI, Strain/Indicator: WP2S/PKM101, Metabolic Activation: NONE, BACTERIA IRRADIATED IN PRESENCE OF TEST COMPOUND WITH UVA FOR 10 MIN, TRANSFERRED TO MEDIUM, Metabolic Activation: NONE, BACTERIA IRRADIATED IN PRESENCE OF TEST COMPOUND WITH UVA FOR 10 MIN, TRANSFERRED TO MEDIUM, Method: STANDARD PLATE) of the same compound?
Answer: The mutagenic call was “active; positive; uva was 250 uw/cm2”.
